Measured values taken from patent US20070026090A1, “Treatment and prevention of inflammatory disease and mitochondrial dysfunction with high dose selenium” (priority 2003, published 2007).

Columns and labels:
NF-κB = NF-κB binding in vitro, selenite added to nuclear extract (EMSA); set-up: species or system murine; conditions: 5 μM added to nuclear extract 5 minutes before (FIG. 12B)
Experimental: Nuclear extracts: Nuclear Extracts were prepared using a slight modification of the method of Dignam et al (23). Treated cells were washed with cold PBS, scraped and centrifuged. Hypotonic buffer (1 ml, 20 mM HEPES pH 7.0, 10 mM KCl, 1 mM mGCl2, 0.5 mM DTT, 0.1% Triton X-100, 20% glycerol, 2 mM PMSP, 1 mg/ml Aprotonin and Leupeptin) was added to the cell pellets, the pellets were disrupted by pipetting, and centrifuged 3000 RPM for 5 min. The pellets were re-suspended in 100 μl cold extraction buffer (20 mM HEPES pH 7.0, 10 mM KCl, 1 mM mGCl2, 0.5 mM DTT, 0.1% Triton X-100, 20% glycerol, 2 mM PMSF, 1 mg/ml Aprotonin and Leupeptin, 420 mM NaCl). The samples were rotated for 20 min at 4° C., centrifuged 15,000 RPM for 10 min, and supernatants collected. Protein content was measured using Bradford reagent. Samples were stored frozen at minus 70° C.
Electromobility shift assay (EMSA)—Gel shift assays were performed according to the gel shift assay protocol from Promega Corp. (San Luis Obispo, Calif.). […] For each reaction, 2 μg of nuclear extract were incubated with 2 μl of 5× binding buffer for 5 min., 1 μl of the ^32P-labeled oligonucleotide was added at room temperature for 20 min., the samples were prepared by adding 1 μl of dye free loading buffer, and separated using 6% non-denaturing acrylamide gel electrophoresis. […]

lipid peroxidation (MDA) = assay: Lipid peroxidation: MDA levels in colon tissue (HPLC); format: in vivo, rat; conditions: colitis-induced and uninduced rats, selenium supplemented group; data not presented
Experimental: Lipid peroxidation—MDA levels: MDA levels in the colon tissue were determined as an indicator of lipid peroxidation using HPLC methodology (Valacchi et al., 2000). Briefly, tissue sections (100 mg) were homogenized in 1% Triton X 100 PBS. The suspended tissue was diluted 1:1 with 1% SDS solution and incubated with 250 ul TBA reagent (0.375 g TBA/100 ml) and 200 ul phosphoric acid (1.22 M) for 30 min at 100° C. Methanol ([…]) was added for protein precipitation and NaOH (20 ml, 1N) added for pH neutralization. After centrifugation, 100 ul clear supernatant was injected into a HPLC system, using a C185 m, 250 mm^a 4.6 mm internal diameter, reversed phase column (Alltech, Deerfield, Ill., USA). The mobile phase consisted of 60% methanol and 40% 50 mM NaH2PO4, pH 5.5. The flow rate was 0.9 ml/min and the detector was set to 532 nm. HPLC colarray ESA was used.

mtTFA = mtTFA mRNA in colon tissue (RT-PCR); format: in vivo, rat
Experimental: Mitochondrial (mt) TFA, NRF1, and cytochrome c mRNA analysis: Total RNA was extracted from 50 to 100 mg tissue at a time using 1 ml of Tri Reagent® (Sigma-Aldrich Corp., St. Louis, Mo.) according to manufacturer's instructions. First strand cDNA synthesis was carried out using reverse-iTTM First Strand Synthesis from Advanced Biotechnologies (ABgene®, ABgene, Epsom, U.K.) was used according to the manufacturer's instructions. Target sequences were amplified in the PCR reaction as follows: each tube contained 37 ng of cDNA from cytochrome c, GAPDH, or 18S, 3 μl of specific primers, 12.5 μl of ready Mix and 6.5 μl water DEPC (for a total 25 μl in each tube).
The PCR for cytochrome c, NRF1 and mtTFA was run at 95° C. for 5 min, 94° C. for 30 sec, 56° C. for 2 min, 72° C. for 1 min, back to stage 2 for 22, 26, 24 cycles, respectively, then 72° C. for 10 min, and 4° C. The products of the PCR were separated on a 1% agarose gel in TAE buffer with ethidium bromide. The electrophoresis took place in a BioRad device in 1×TAE buffer at 95 V for about 50 min (maximum mA). The size of the cDNA was determined by a 100-bp marker.
Rat mtTFA: (Antisense) 5′-[…]-3′ (SEQ ID No. 15) corresponding to nucleotides 756 to 777 of rat mtMTFA (GenBank Accession No. AJ312746).
(Sense): 5′-[…]-3′ (SEQ ID No. 16). The expected PCR product was 417 bp, the actual 417 bp.

UCP2 = UCP2 transcription and expression (RTPCR, Western blot); format: cell-based, murine
Experimental: Cell culture: Murine J774.2 macrophages (kindly provided by Prof. Dov Zipori from the Weizmann Institute of Science) were grown in RPMI medium supplemented with 10% (w/v) fetal calf serum, penicillin (100 U/ml), streptomycin (100 μg/ml) and 1× glutamine at 37° C. in a humidified atmosphere consisting of 95% air and 5% CO2. Experiments were performed on cells at 60% confluence.
Western blots (Sp1, MnSOD, UCP2): Cells were grown in six-well tissue culture plates, treated with selenium for 72 h and activated with LPS and IFN-γ for 24 h. The wells were washed with PBS, scraped and centrifuged
(5 min. 2000 RPM), and lysed by addition of boiling hot lysis buffer (1% SDS, 1 mM sodium ortho-vanadate, 10 mM Tris pH 7.4) to the pellets. Protein content was measured (BIO RAD protein assay kit) and equalized. Sample buffer (containg SDS) was added and the samples were boiled. The samples were subjected to SDS-PAGE followed by western blot analysis. Separated proteins were transferred electrophoretically from the gel to a nitrocellulose membrane (Amersham International plc, Buckinghamshire, ENGLAND). The membrane was blocked in TBS (0.15 M NaCl/10 mM Tris/HCl, pH7.4) containing 5% (v/v) skimmed milk (Blotto), then incubated over night with primary antibodies at RT (diluted 1/2000 in blotto). After being washed six times in TBST [TBS containing 0.05% (v/v) Tween 20], the membrane was incubated for 2 h at room temperature with secondary antibody (diluted 1/5000 in blotto). Immunoreactive bands were detected with ECL western blotting detection reagents (Amersham Pharmacia Biotech, Buckingammshire England) and developed on film (Fuji super RX, Dusseldorf, Germany). Primary antibodies for Sp1 and MnSOD were from BD Transduction Laboratories (Becton Dickenson and Co., San Jose, Calif. USA) and for UCP2 from Alpha Diagnostics LTD (Warszaw, Poland). Secondary antibodies were from Jackson ImmunoResearch (Jackson Labs, Bar Harbor, Maine, USA).
Reverse transcriptase-PCR (RTPCR): Total RNA was prepared and isolated by the Tri-Reagent method according to the manufacturer's protocol (Sigma, St. Louis Mo., USA). Total RNA (1 μg) was converted into cDNA using Reverse-iT first strand synthesis kit (Abgene, UK). Amplification of MnSOD and UCP2 sequences was performed by incubating 10 ng equivalents of DNA with the following oligonucleotide primers:
Left (sense), 5′-[…]-3′ (SEQ ID NO:7) corresponding to nucleotides 372 to 392 of mouse mRNA (GenBank Accession No. NM 011671).
Right (antisense) 5′[…]-3′ (SEQ ID NO: 8) corresponding to nucleotides 826 to 846 of mouse mRNA (GenBank Accession No. NM 011671). The expected PCR product was 474 bp. Actual PCR product was approximately 474 bp, measured on 1.25% agarose gel in TAE containing ethidium bromide.
PCR was performed with 28 cycles (25 cycles for GAPDH) of 30 seconds at 96° C., 30 seconds at 58° C. and 1 min at 72° C. RTPCR products were analyzed on 1.3% (w/v) agarose gels.

`[Se]` [selenium] was tested, and the “NF-κB binding in vitro” value (NF-κB) was “directly inhibited”, the “colon tissue lipid peroxidation (MDA content)” value (lipid peroxidation (MDA)) was “no changes” and the “mtTFA levels in colon tissue, colitis-induced rats” value (mtTFA; 24 h after TNBS, supplemented (FIG. 17 lane 4), unsupplemented nearly absolute loss) was “surpass that of healthy control rats”. For the same compound, the “mtTFA levels in colon tissue, healthy rats” value (mtTFA; healthy supplemented rats (FIG. 17 lane 2)) was “significantly enhances”, the “UCP2 transcripts and protein” value (UCP2; 24 or 72 hours, concentration dependent, to a lesser extent than MnSOD) was “reduced the abundance” and the “UCP2 expression, activated macrophages” value (UCP2; exposure (72 hours) prior to activation, concentration dependent (FIG. 11)) was “decreased”.
